This experiment deals with ARPE-19 cells. In words: Intracellular uptake of FITC labeled TAT and PHHP 1 peptides in ARPE-19 cells (fluorometry). The conditions noted are these: 10 and 5 μM. In kind it is cell-based, human. How it is done:
FIG. 9 are graphs of quantitation of in vitro cell uptake study of FITC labeled PHIP (P 1) and TAT peptides in ARPE-19 cells. Cells were grown to a 10,000 well density in 96 well fluorescent imaging plates with a transparent bottom. The ARPE-19 cells required an additional 48 hrs, to reach this cell density. Cells were incubated with 200 μl of 10 and 5 μM/ml FITC labeled PHHP (P 1) and TAT peptides and uptake was continued for 1 hour at 37° C. Following uptake; cells were washed three times with acidic PBS (pH 5.0) and normal PBS (pH 7.4) at 37° C. Cells were lysed using 0.1 M NaOH and quantified using a fluorometry method. Panel A illustrates uptake of peptides by ARPE-19 cells and absolute amount, and panel B illustrates the percentage uptake of peptides at different concentrations.
The cell uptake study of FITC labeled PHHP peptides in an ARPE-19 cell line was studied using fluorometry. ARPE —19 cells were grown in a DMEM/F12 medium. A cell density of 10,000 cells was plated into a 96 well plate for each cell lines, 48 hours before the start of the uptake study. […] All the samples were brought to room temperature and fluorescence spectra were recorded at an excitation wavelength of 493 nm and emission wavelength of 520 nm. The percentage uptake and absolute uptake were determined for each peptide at different concentrations and plotted as a bar graph for comparative analyses in FIG. 3.
Intracellular uptake of TAT and PHHP 1 peptides in ARPE-19 cells. […] All the samples were then brought to room temperature and fluorescence intensities were recorded at an excitation wavelength of 493 nm and emission wavelength of 520 nm.
Percentage uptake and statistical analyses at different concentrations were compared. […] The percentage uptake of the PHHP 1 peptide was determined to be ˜15-17, whereas ˜3-4% for TAT peptide. […] Furthermore, these proteins in their PHHP 1 tagged and un-tagged forms were evaluated for intracellular uptake properties in ARPE-19, A549, and hCET cells lines and for transcellular migration behavior across bovine and rabbit eyes cornea following topical dosing (FIG. 9).

Consider “PHHP 1: positive, helical, hydrophobic peptide variant, sequence WWFWIWFWWGPGRRKRRKRRR [SEQ ID 1] (Sequence is synthesized)”, for which the “fold improvement in the uptake relative to the TAT peptide” value (1 hour uptake at 37° C.) was 4-7 fold. Also, under “FITC labeled peptide, 1 hour”, the “uptake behavior (percentage uptake versus concentration)” value was “concentration dependence”. The percentage uptake (FITC labeled peptide, 1 hour uptake at 37° C.) is recorded as 15-17%.

The values above are taken from patent US20240092837A1, “Novel Peptide Carrier Compositions” (The Regents of the University of Colorado, A Body Corporate, priority 2021, published 2024).
